The values that follow come from patent US20250368666A1, “INDAZOLE COMPOUNDS” (TYRA BIOSCIENCES, INC., priority 2022, published 2025).

Where a name gives a salt, the structure may show the parent alone.

The target in one test is T1, FGFR3 (Homo sapiens, UniProt P22607).
T1 construct: made in house; host or cells: E. coli (BL21-derived), T7 phage
As to the kind of experiment: Kinase binding assay (kinase-tagged T7 phage, affinity beads, qPCR), Kd. The conditions noted are these: read-out: FGFR3 (Kd nM). In a few lines:
(§1)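 Competition binding of compounds against kinase-tagged T7 phage captured on immobilised biotinylated ligand beads; bead-bound kinase quantified by qPCR of eluates. 11-point 3-fold dilution, 0.9% DMSO final; Kd from Hill fit with slope fixed at −1.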
(Quantitative PCR measures a nucleic acid by following its amplification.)

For the next test, the target named is T2, FGFR1 (Homo sapiens, UniProt P11362).
T2 construct: made in house; host or cells: E. coli (BL21-derived), T7 phage
The test is described as above. The following applies: read-out: FGFR1 (Kd nM). A digest of the protocol: as §1

In test [1] the test system is MDA-MB-453 cell line (FGFR4-Y367C). Description: Cancer cell line cell viability assay (Cell Titer-Glo), 120 hr. The format is cell-based. The conditions noted are these: Homo sapiens. A digest of the protocol:
(§2)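 Luminescent ATP read-out (Cell Titer-Glo 2.0) after compound exposure, normalised to DMSO-only wells. Dosing: 9 concentrations, 4-fold steps, top 3 μM, triplicates. IC50 derived by log(inhibitor) vs. response 4-parameter fit.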
On the technique in general: Cellular ATP, detected with luciferase, serves as a proxy for viable cell number.

Test [2] concerns RT112/84 cell line (FGFR3-fusion). Description: Cancer cell line cell viability assay (Cell Titer-Glo), 72 hr. The format is cell-based. The following applies: Homo sapiens, RT112/84, RT112/84 cell line (FGFR3-fusion). A digest of the protocol:
as §2

Test [3] has as its system KATO-III cell line (FGFR2 amplification). Described as above. The format is cell-based. The following applies: Homo sapiens, KATO III. In a few lines: as §2
Test [4] relates to KG-1 cell line (FGFR 1-fusion). The test is described as above. Type of test: cell-based. The conditions noted are these: Homo sapiens, KG-1, KG-1 cell line (FGFR1-fusion). In a few lines:
as §2

Another test addresses T3, FGFR3 (V555M) (Homo sapiens, UniProt P22607, V555M).
T3 construct: made in house; host or cells: E. coli (BL21-derived), T7 phage
Description: Kinase binding assay (kinase-tagged T7 phage, affinity beads, qPCR), Kd. The following applies: V555M mutant; read-out: FGFR3 (V555M) (Kd nM). A digest of the protocol:
as §1

The target of a further test is T4, FGFR2 (Homo sapiens, UniProt P21802).
T4 construct: made in house; host or cells: E. coli (BL21-derived), T7 phage
The description is as above. The following applies: read-out: FGFR2 (Kd nM). A digest of the protocol: as §1

The next test addresses T5, FGFR4 (Homo sapiens, UniProt P22455).
T5 construct: made in house; host or cells: E. coli (BL21-derived), T7 phage
The description is as above. The following applies: read-out: FGFR4 (Kd nM). In a few lines:
as §1

The test system of test [5] is HuH7 cell line (FGF19 amplification). Description: Cancer cell line cell viability assay (Cell Titer-Glo), 120 hr. The conditions noted are these: Homo sapiens, Huh-7. The format is cell-based. A digest of the protocol: as §2

T2 sequence (P11362 22-822): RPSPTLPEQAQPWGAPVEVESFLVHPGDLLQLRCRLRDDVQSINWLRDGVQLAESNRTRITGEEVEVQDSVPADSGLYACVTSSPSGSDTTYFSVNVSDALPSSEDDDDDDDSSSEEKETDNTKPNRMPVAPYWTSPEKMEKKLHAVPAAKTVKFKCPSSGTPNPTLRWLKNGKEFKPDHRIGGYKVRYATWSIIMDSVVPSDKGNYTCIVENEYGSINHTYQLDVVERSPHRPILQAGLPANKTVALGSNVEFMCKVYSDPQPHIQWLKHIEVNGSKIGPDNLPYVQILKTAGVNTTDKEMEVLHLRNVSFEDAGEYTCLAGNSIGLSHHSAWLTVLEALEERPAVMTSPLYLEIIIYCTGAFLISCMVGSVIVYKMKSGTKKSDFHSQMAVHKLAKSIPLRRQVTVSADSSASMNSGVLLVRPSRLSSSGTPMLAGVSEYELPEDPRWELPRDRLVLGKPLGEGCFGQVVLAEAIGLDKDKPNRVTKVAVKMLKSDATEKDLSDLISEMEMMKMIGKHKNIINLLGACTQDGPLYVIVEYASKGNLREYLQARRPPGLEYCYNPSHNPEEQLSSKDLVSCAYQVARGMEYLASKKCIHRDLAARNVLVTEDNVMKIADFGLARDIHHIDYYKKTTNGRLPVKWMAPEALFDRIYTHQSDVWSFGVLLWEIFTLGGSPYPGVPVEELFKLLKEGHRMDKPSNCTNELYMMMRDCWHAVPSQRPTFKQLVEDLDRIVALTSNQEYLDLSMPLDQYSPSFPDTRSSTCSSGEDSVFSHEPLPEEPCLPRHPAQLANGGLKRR
T4 sequence (P21802 22-821): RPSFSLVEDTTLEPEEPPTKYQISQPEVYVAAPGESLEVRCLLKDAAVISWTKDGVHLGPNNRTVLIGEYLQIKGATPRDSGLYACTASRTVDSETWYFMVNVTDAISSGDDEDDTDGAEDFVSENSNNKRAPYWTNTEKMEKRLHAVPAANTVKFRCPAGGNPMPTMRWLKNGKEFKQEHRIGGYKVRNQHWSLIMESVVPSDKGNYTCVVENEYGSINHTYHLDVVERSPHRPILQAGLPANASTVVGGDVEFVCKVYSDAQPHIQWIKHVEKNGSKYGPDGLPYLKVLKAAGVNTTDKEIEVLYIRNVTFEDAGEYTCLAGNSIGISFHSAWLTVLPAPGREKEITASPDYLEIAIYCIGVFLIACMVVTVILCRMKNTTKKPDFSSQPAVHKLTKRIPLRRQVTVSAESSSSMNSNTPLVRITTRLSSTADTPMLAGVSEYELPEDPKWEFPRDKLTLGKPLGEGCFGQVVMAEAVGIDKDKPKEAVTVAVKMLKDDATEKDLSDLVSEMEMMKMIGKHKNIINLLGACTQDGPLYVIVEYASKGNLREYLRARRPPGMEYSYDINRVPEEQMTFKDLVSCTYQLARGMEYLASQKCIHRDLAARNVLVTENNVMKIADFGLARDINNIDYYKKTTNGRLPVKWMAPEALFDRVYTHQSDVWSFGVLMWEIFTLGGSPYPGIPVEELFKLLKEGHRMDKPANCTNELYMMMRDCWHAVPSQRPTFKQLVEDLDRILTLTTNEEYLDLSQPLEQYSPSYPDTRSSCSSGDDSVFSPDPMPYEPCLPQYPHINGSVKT
T1 sequence (P22607 23-806): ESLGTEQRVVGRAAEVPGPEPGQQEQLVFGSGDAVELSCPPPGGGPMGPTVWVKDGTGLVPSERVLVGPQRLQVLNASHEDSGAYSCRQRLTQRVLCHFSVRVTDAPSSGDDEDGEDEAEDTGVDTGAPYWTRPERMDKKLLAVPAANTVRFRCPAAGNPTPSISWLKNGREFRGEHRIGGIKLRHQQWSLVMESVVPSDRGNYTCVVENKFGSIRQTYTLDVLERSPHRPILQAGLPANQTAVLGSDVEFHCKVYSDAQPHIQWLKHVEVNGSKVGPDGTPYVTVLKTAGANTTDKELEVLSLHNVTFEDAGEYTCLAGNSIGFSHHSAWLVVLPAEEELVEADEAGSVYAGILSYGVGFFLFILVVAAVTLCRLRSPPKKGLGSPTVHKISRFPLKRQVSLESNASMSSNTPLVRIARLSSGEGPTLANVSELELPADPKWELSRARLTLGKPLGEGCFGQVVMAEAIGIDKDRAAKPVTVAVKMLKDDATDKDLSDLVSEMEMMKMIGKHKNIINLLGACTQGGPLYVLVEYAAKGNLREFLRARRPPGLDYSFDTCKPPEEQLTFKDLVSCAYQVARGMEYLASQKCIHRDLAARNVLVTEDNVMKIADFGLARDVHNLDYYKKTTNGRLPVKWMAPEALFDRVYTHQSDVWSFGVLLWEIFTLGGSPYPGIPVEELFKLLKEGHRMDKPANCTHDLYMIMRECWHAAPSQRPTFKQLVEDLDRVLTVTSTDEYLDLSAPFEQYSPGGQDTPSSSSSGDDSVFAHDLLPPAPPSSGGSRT
T5 sequence (P22455 22-802): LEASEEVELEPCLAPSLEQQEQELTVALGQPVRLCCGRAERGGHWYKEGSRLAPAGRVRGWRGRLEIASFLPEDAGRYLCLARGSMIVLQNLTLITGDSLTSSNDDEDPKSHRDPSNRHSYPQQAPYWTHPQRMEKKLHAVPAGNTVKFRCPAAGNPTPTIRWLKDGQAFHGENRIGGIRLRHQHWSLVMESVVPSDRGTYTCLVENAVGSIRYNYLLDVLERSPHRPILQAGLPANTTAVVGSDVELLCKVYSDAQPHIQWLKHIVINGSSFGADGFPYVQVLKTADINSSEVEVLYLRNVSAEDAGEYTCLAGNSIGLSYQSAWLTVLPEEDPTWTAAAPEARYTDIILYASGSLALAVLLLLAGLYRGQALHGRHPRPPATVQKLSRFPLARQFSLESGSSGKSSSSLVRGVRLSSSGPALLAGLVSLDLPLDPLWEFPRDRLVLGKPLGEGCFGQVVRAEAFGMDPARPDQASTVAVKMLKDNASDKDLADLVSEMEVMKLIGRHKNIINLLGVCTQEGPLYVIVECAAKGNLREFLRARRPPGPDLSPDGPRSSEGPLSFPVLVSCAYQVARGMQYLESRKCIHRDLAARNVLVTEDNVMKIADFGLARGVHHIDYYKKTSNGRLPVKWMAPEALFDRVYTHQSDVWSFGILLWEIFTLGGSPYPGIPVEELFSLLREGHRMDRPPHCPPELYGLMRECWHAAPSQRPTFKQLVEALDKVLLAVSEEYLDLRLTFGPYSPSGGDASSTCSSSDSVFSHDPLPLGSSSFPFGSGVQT
T3 sequence (P22607 23-806 V555M): as the sequence (P22607 23-806) above, with V533M counted along it

What is called Kd is the free concentration of one partner at which half of the binding sites on the other are occupied at equilibrium, for simple one-to-one binding. One may read the IC50 as the concentration that gives 50% inhibition. High values mean weaker potency, low ones greater potency. As to `CC(C)CNC1(C)CN(c2ccc(-c3n[nH]c4ccc(O[C@H](C)c5c(Cl)cncc5Cl)cc34)nn2)C1` [Example 242, (R)-1-(6-(5-(1-(3,5-dichloropyridin-4-yl)ethoxy)-1H-indazol-3-yl)pyridazin-3-yl)-N-isobutyl-3-methylazetidin-3-amine], the Kd at FGFR3 and at FGFR1 was 1 to 50 nM in each case. Besides, the half-inhibitory concentration (IC50) in test [1] fell in the range of 200 to 1000 nM; in [2], 0.1 to 50 nM; in [3] it was 50 to 200 nM; in [4] it was 50 to 200 nM.

Consider `C[C@@H](Oc1ccc2[nH]nc(-c3cnc(N4CC(C)(NCC5CC5)C4)cc3F)c2c1)c1c(Cl)cncc1Cl` [Example 243, (R)—N-(cyclopropylmethyl)-1-(5-(5-(1-(3,5-dichloropyridin-4-yl)ethoxy)-1H-indazol-3-yl)-4-fluoropyridin-2-yl)-3-methylazetidin-3-amine], for which the Kd on FGFR3 and at FGFR1 was 1 to 50 nM in each case. Also, the IC50 is 50 to 200 nM in test [1], 0.1 to 50 nM in test [2], 200 to 1000 nM in [3] and 200 to 1000 nM in test [4].

For the compound `CC(C)NC1(C)CN(c2ccc(-c3n[nH]c4ccc(O[C@H](C)c5c(Cl)cncc5Cl)cc34)nn2)C1` [Example 244, (R)-1-(6-(5-(1-(3,5-dichloropyridin-4-yl)ethoxy)-1H-indazol-3-yl)pyridazin-3-yl)-N-isopropyl-3-methylazetidin-3-amine], the Kd at FGFR3 and on FGFR1 was 1 to 50 nM in each case. Besides, the IC50 fell in the range of 200 to 1000 nM in test [1], 0.1 to 50 nM in [2], 50 to 200 nM in test [3] and 50 to 200 nM in test [4].

In the case of `CC(C)CN(C)C1(C)CN(c2ncc(-c3n[nH]c4ccc(O[C@H](C)c5c(Cl)cncc5Cl)cc34)cc2F)C1` [Example 245, (R)-1-(5-(5-(1-(3,5-dichloropyridin-4-yl)ethoxy)-1H-indazol-3-yl)-3-fluoropyridin-2-yl)-N-isobutyl-N,3-dimethylazetidin-3-amine], the results for the Kd at FGFR3 and at FGFR1 were 1 to 50 nM and 50 to 300 nM, respectively. The IC50 in test [1] is > 1000 nM; in test [2] it was 50 to 200 nM; in [3] it was > 1000 nM; in test [4], > 1000 nM.

With `C[C@@H](Oc1ccc2[nH]nc(-c3cnc(N4CC(C)(N(C)CC5CC5)C4)c(F)c3)c2c1)c1c(Cl)cncc1Cl` [Example 246, (R)-N-(cyclopropyl-methyl)-1-(5-(5-(1-(3,5-dichloropyridin-4-yl)ethoxy)-1H-indazol-3-yl)-3-fluoropyridin-2-yl)-N,3-dimethylazetidin-3-amine], the dissociation constant Kd on FGFR3 and at FGFR1 was 1 to 50 nM in each case. Further, the half-maximal inhibitory concentration (IC50) lay within 200 to 1000 nM in [1], 0.1 to 50 nM in [2], 50 to 200 nM in test [3] and 200 to 1000 nM in test [4].

On to `CCC1(NCC2CC2)CN(c2ncc(-c3n[nH]c4ccc(O[C@H](C)c5c(Cl)cncc5Cl)cc34)cc2F)C1` [Example 247, N-(cyclopropylmethyl)-1-[5-[5-[(1R)-1-(3,5-dichloro-4-pyridyl)ethoxy]-1H-indazol-3-yl]-3-fluoro-2-pyridyl]-3-ethyl-azetidin-3-amine dihydrochloride], for which the Kd on FGFR3 and on FGFR1 was 1 to 50 nM in each case. Moreover, the half-inhibitory concentration (IC50) in test [1] fell in the range of 50 to 200 nM; in test [2], 0.1 to 50 nM; in [3], 50 to 200 nM; in [4], 50 to 200 nM.

Take `Cc1ncc(Cl)c([C@@H](C)Oc2ccc3[nH]nc(-c4cnc(N5CC(CC#N)(NCC6CC6)C5)c(F)c4)c3c2)c1Cl` [Example 250, 2-[3-(cyclopropylmethyl-amino)-1-[5-[5-[(1R)-1-(3,5-di-chloro-2-methyl-4-pyridyl)ethoxy]-1H-indazol-3-yl]-3-fluoro-2-pyridyl]azetidin-3-yl]acetonitrile]: the values for the dissociation constant Kd on FGFR3 and at FGFR1 were 1 to 50 nM and 50 to 300 nM, respectively. The half-maximal inhibitory concentration (IC50) fell in the range of 200 to 1000 nM in [1], 0.1 to 50 nM in test [2], 50 to 200 nM in [3] and 200 to 1000 nM in test [4].

Turning to `C[C@@H](Oc1ccc2[nH]nc(-c3cnc(N4CC(CC#N)(N5CCCC5)C4)c(F)c3)c2c1)c1c(Cl)cncc1Cl` [Example 251, (R)-2-(1-(5-(5-(1-(3,5-dichloropyridin-4-yl)ethoxy)-1H-indazol-3-yl)-3-fluoropyridin-2-yl)-3-(pyrrolidin-1-yl)azetidin-3-yl)acetonitrile], the Kd on FGFR3 and at FGFR1 was 1 to 50 nM throughout. For the same compound, the IC50 lay within 50 to 200 nM in test [1], 0.1 to 50 nM in test [2], 0.1 to 50 nM in test [3] and 50 to 200 nM in [4].

As to `COc1cc2[nH]nc(-c3cnc(N4CC(C)(NCP(C)(C)=O)C4)c(C#N)c3)c2cc1O[C@H](C)c1c(Cl)cncc1Cl` [Example 329, 5-[5-[(1R)-1-(3,5-dichloro-4-pyridyl)ethoxy]-6-methoxy-1H-indazol-3-yl]-2-[3-(dimethyl-phosphoryl-methylamino)-3-methyl-azetidin-1-yl]pyridine-3-carbonitrile], the Kd at FGFR3 (V555M), at FGFR3, on FGFR2, at FGFR4 and at FGFR1 was 1 to 50 nM each time. In addition, the IC50 is 0.1 to 50 nM in test [5], 50 to 200 nM in [2], 200 to 1000 nM in test [3] and > 1000 nM in test [4].

With `COc1cc2[nH]nc(-c3cnc(N4CC(C)(N5CCS(=O)(=O)CC5)C4)c(C#N)c3)c2cc1O[C@H](C)c1c(Cl)cncc1Cl` [Example 334, (R)-5-(5-(1-(3,5-dichloropyridin-4-yl)ethoxy)-6-methoxy-1H-indazol-3-yl)-2-(3-(1,1-dioxidothio-morpholino)-3-methylazetidin-1-yl)nicotinonitrile], the Kd on FGFR3 (V555M), on FGFR3, on FGFR2, at FGFR4 and at FGFR1 was 1 to 50 nM each time. Also, the concentration for half-maximal inhibition (IC50) in test [5] was 0.1 to 50 nM; in [2] it was 0.1 to 50 nM; in [3], 50 to 200 nM; in [4], 200 to 1000 nM.

`COc1cc2[nH]nc(-c3cnc(N4CC(C)(N5CC6CC(C5)O6)C4)c(C#N)c3)c2cc1O[C@H](C)c1c(Cl)cncc1Cl` [Example 337, 2-(3-(6-oxa-3-aza-bicyclo[3.1.1]hep-tan-3-yl)-3-methylazetidin-1-yl)-5-(5-((R)-1-(3,5-dichloropyridin-4-yl)ethoxy)-6-methoxy-1H-indazol-3-yl)nicotinonitrile]: the dissociation constant (Kd) at FGFR3 (V555M), at FGFR3, at FGFR2, on FGFR4 and on FGFR1 was 1 to 50 nM throughout. Further, the IC50 in test [5] was 0.1 to 50 nM; in test [2], 0.1 to 50 nM; in test [3], 50 to 200 nM; in test [4] it was 50 to 200 nM.

On to `COc1cc2[nH]nc(-c3cnc(N4CC(C)(N5C[C@H]6C[C@@H]5CO6)C4)c(C#N)c3)c2cc1O[C@H](C)c1c(Cl)cncc1Cl` [Example 338, 2-(3-((1R,4R)-2-oxa-5-aza-bicyclo[2.2.1]hep-tan-5-yl)-3-methylazetidin-1-yl)-5-(5-((R)-1-(3,5-dichloropyridin-4-yl)ethoxy)-6-methoxy-1H-indazol-3-yl)nicotinonitrile], for which the dissociation constant Kd on FGFR3 (V555M), on FGFR3, on FGFR2, on FGFR4 and at FGFR1 was 1 to 50 nM throughout. Also, the half-maximal inhibitory concentration (IC50) in [5] was 0.1 to 50 nM; in test [2], 0.1 to 50 nM; in test [3], 50 to 200 nM; in [4], 50 to 200 nM.

`COc1cc2[nH]nc(-c3cnc(N4CC(C)(NCC5CC5)C4)nc3)c2cc1O[C@H](C)c1c(Cl)cncc1Cl` [Example 339, (R)-N-(cyclopropyl-methyl)-1-(5-(5-(1-(3,5-dichloropyridin-4-yl)ethoxy)-6-methoxy-1H-indazol-3-yl)pyrimidin-2-yl)-3-methylazetidin-3-amine]: the Kd at FGFR3 (V555M), at FGFR3, at FGFR2, at FGFR4 and on FGFR1 was 1 to 50 nM each time. Also, the IC50 in [5], in test [2], in test [3] and in [4] was 0.1 to 50 nM in each case.
